Where a SMILES comes first, the peptide text is derived from it. [ ]: non-standard residue; d: D form.
Assays:
[1] = tested on: pulmonary hypertension; settings: rat hypoxia model; cited from earlier work
[2] = tested on: early cerebral vasospasm; settings: in vivo; cited from earlier work
[3] = tested on: chronic heart failure; settings: patients with chronic heart failure; cited from earlier work
[4] = tested on: acute renal ischemia; settings: in vivo; cited from earlier work
[5] = tested on: ET-1-induced changes in gastric mucosal hemodynamics; settings: in vivo; cited from earlier work
[6] = molecular target: T1, human ETA R (Homo sapiens, UniProt P25101); test: Competition radioligand binding assay, [125I]-ET-1, Ltk- cells expressing human ETA R (HERBA A); settings: Ltk- cell membranes, 40 pM [125I]-ET-1, 2 hours at 37° C
T1 construct: expressed in transfected cells; host or cells: Ltk- cells (membranes)
T1 sequence (P25101 21-427): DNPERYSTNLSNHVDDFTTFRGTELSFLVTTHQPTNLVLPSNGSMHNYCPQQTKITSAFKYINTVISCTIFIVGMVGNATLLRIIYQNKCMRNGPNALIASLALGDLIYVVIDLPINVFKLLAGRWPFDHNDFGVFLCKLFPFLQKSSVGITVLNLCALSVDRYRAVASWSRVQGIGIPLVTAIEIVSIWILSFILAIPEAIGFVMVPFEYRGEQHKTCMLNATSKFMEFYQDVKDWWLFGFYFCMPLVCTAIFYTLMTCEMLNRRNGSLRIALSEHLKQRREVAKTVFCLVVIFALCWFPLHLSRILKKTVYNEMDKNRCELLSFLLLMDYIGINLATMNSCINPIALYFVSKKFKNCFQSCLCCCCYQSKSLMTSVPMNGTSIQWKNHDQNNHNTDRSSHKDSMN
Procedure: (§1) The following cultured cells were used in binding experiments: CHO-K1 cells expressing recombinant human ETB R (HERBA B), or Ltk^- cells expressing human ETA R (HERBA A). […] Membranes were prepared from cultured cells by lysing cells in cold lysis buffer (5 mM HEPES, 2 mM EDTA, pH 7.4) and homogenizing with a Dounce "A" homogenizer. All of the homogenates were centrifuged at 30,000×g for 20 minutes at 4° C. Membrane pellets were resuspended in cold buffer containing 20 mM Tris, 2 mM EDTA, 200 μM Pefablock, 10 μM phosphoramidon, 10 μM leupeptin, and 1 μM pepstatin (pH 7.4) and frozen at -80° C. until use. Radioligand and competing ligands were prepared in binding buffer containing 20 mM Tris, 2 mM EDTA, and 0.1% BSA.
(§2) The assay was terminated by filtration over Whatman GF/B filters that were presoaked with 50 mM Tris, pH 7.4, containing 0.2% BSA and 100 μM bacitracin. […] binding was defined as total binding minus nonspecific binding.

[7] = molecular target: T2, human ETB R (Homo sapiens, UniProt P24530); test: Competition radioligand binding assay, [125I]-ET-1, CHO-K1 cells expressing recombinant human ETB R (HERBA B); settings: CHO-K1 cell membranes, 40 pM [125I]-ET-1, 2 hours at 37° C
T2 construct: expressed in transfected cells; host or cells: CHO-K1 cells (membranes)
T2 sequence (P24530 27-442): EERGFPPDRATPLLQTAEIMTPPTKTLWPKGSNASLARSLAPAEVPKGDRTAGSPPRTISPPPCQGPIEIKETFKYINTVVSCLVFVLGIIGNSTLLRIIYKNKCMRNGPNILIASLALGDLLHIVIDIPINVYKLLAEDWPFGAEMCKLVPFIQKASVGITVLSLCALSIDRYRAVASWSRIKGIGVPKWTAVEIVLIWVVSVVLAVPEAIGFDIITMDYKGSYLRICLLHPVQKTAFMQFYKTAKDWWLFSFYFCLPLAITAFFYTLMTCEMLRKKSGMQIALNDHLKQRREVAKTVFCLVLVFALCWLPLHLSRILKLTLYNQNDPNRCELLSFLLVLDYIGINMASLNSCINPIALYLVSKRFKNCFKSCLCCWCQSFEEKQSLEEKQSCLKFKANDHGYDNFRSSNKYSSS
Procedure: as §1, §2

[8] = tested on: neointima formation; settings: rats, carotid artery balloon angioplasty; cited from earlier work
[9] = tested on: middle cerebral artery occlusion; settings: cats, IV; cited from earlier work
[10] = tested on: early cerebral vasospasm; settings: rat SAH; cited from earlier work
[11] = tested on: prostate smooth muscle; settings: in vivo; cited from earlier work
[12] = tested on: basilar artery vasoconstriction; settings: canine two-hemorrhage model of SAH, after 7 days; cited from earlier work
[13] = tested on: small intestinal mucosa; settings: rats, local intra-arterial; cited from earlier work
[14] = tested on: liver; settings: cited from earlier work
[15] = tested on: isolated cerebral arterioles; settings: cited from earlier work

CC(C)C[C@@H]1NC(=O)[C@@H](C(C)C)NC(=O)[C@@H]2CCCN2C(=O)[C@@H](CC(=O)O)NC(=O)[C@@H](Cc2c[nH]c3ccccc23)NC1=O [BQ-123] (cyclo(L[dW][dD]P[dV]))
increase in pulmonary vascular resistance and pulmonary arterial pressure [1]: lowering the increase in pulmonary vascular resistance and pulmonary arterial pressure
early cerebral vasospasm following SAH [2]: prevent early cerebral vasospasm

COc1ccccc1Oc1c(NS(=O)(=O)c2ccc(C(C)(C)C)cc2)nc(-c2ncccn2)nc1OCCO [Bosentan]
cardiac performance [3]: improve cardiac performance
increase in pulmonary vascular resistance and pulmonary arterial pressure [1]: lowering the increase in pulmonary vascular resistance and pulmonary arterial pressure
efficacy in models of acute renal ischemia [4]: effective in models of acute renal ischemia
ET-1-induced changes in gastric mucosal hemodynamics and ET-1-induced gastric ulceration [5]: antagonist toward the ET-1-induced changes in gastric mucosal hemodynamics as well as on ET-1-induced gastric ulceration

CCOc1ccc(C(=O)/C(Cc2cc(OC)c(OC)c(OC)c2)=C(/C(=O)O)c2cc(OC)c3c(c2)OCO3)cc1C [Example 3]
IC50 [6]: 70 nM
IC50 [7]: > 2.5 µM

CCCOc1ccc2c(c1)[C@@H](c1ccc(OC)cc1OCC(=O)O)[C@H](C(=O)O)[C@H]2c1ccc2c(c1)OCO2 [SB 209670]
neointima formation [8]: ameliorate neointima formation

COc1ccc(C2(O)OC(=O)C(c3ccc4c(c3)OCO4)=C2Cc2cc(OC)c(OC)c(OC)c2)cc1 (stereo not drawn) [PD 156707]
increase in pulmonary vascular resistance and pulmonary arterial pressure [1]: lowering the increase in pulmonary vascular resistance and pulmonary arterial pressure
volume of ischemic damage in the cerebral hemisphere [9]: significantly reduced

COc1cccc(Oc2c(NS(=O)(=O)c3ccc(C(C)(C)C)cc3)ncnc2OCCO)c1 [Ro 46-2005]
systemic arterial blood pressure [10]: no significant effect on systemic arterial blood pressure

COc1ccc(/C(C(=O)O)=C(/Cc2ccc3c(c2)OCO3)C(=O)c2cc(OC)c(OC)c(OC)c2)cc1 [Example 2, (E)-3-Benzo[1,3]dioxol-5-ylmethyl-2-(4-methoxy-phenyl)-4-oxo-4-(3,4,5-trimethoxy-phenyl)-but-2-enoic acid]
IC50 [6]: 58 nM
IC50 [7]: 10 µM

COc1ccc(C(=O)/C(Cc2cc(OC)c(OC)c(OC)c2)=C(/C(=O)O)c2ccc3c(c2)OCO3)cc1 [Example 1, (E)-2-Benzo[1,3]dioxol-5-yl-4-(4-methoxy-phenyl)-4-oxo-3-(3,4,5-trimethoxy-benzyl)-but-2-enoic acid]
IC50 [6]: 65 nM
IC50 [7]: > 2.5 µM

COc1ccc(C2(O)OC(=O)C(c3ccc4c(c3)OCO4)=C2Cc2ccccc2)cc1 (stereo not drawn) [PD 155080]
prostate smooth muscle function [11]: mediate prostate smooth muscle function in vivo

FR 139317
vasoconstriction of the basilar artery [12]: significantly inhibited the vasoconstriction of the basilar artery

endothelin
small intestinal mucosal damage [13]: induce small intestinal mucosal damage in rats in a dose-dependent manner
hepatic vasculature vasoconstriction and hepatic glucose output [14]: sustained vasoconstriction of the hepatic vasculature and a significant increase in hepatic glucose output
vasoconstrictor action on isolated cerebral arterioles [15]: potent vasoconstrictor action

— patent US6043241A, “Ketoacid endothelin antagonists” (Warner-Lambert Company, priority 1998, dated 2000)
